Test results as given in ChEMBL document CHEMBL1145408, “Substituted E-3-(2-chloro-3-indolylmethylene)1,3-dihydroindol-2-ones with antitumor activity. Effect on the cell cycle and apoptosis” (2007).
Where a name gives a salt, the structure may show the parent alone. Each block holds one compound with its values, some of them ahead of it. Activity calls are given as the source filed them. The rule behind the calls is not given here.

Key:
[1] = molecular target: T1, Caspase-3 (Homo sapiens) (UniProt P42574); test: Activation of caspase 3 activity in IGROV1 cells assessed as DEVD peptide hydrolysis at 5 uM after 24 hrs; assay type: cell-based; conditions: IGROV-1
T1 sequence (whole entry): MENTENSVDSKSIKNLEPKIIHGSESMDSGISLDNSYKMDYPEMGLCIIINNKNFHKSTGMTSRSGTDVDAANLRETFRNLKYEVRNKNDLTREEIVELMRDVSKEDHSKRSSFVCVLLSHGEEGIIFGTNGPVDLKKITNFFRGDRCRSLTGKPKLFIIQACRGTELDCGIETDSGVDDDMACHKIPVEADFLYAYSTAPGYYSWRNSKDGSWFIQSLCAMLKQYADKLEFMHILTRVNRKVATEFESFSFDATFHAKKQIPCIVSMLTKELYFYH

[2] = molecular target: T2, Caspase-7 (Homo sapiens) (UniProt P55210); test: Activation of caspase 7 activity in IGROV1 cells assessed as DEVD peptide hydrolysis at 5 uM after 24 hrs; assay type: cell-based; conditions: IGROV-1
T2 sequence (whole entry): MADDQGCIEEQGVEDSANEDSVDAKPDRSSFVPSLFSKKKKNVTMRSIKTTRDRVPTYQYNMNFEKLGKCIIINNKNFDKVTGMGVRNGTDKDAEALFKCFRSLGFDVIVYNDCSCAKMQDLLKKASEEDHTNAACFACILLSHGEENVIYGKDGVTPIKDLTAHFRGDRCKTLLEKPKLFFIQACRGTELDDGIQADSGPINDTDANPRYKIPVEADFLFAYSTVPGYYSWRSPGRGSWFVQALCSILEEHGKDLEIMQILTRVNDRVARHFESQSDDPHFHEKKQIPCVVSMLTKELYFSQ

[3] = Antitumor activity against leukemia cells; assay type: functional; conditions: Homo sapiens, Leukemia cell; for TGI: read-out: pTGI (converted)
[4] = tested on: NSCLC; test: Antitumor activity against NSCLC cells; assay type: functional; conditions: Homo sapiens; for TGI: read-out: pTGI (converted)
[5] = Antitumor activity against colon tumor cells; assay type: functional; conditions: Homo sapiens; for TGI: read-out: pTGI (converted)
[6] = Antitumor activity against CNS tumor cells; assay type: functional; conditions: Homo sapiens; for TGI: read-out: pTGI (converted)
[7] = Antitumor activity against melanoma cells; assay type: functional; conditions: Homo sapiens, Melanoma cell; for CC50: read-out: Log LC50 (the source's name) (converted); for TGI: read-out: pTGI (converted)
[8] = Antitumor activity against renal tumor cells; assay type: functional; conditions: Homo sapiens; for TGI: read-out: pTGI (converted)
[9] = Antitumor activity against prostate tumor cells; assay type: functional; conditions: Homo sapiens; for CC50: read-out: Log LC50 (the source's name) (converted); for TGI: read-out: pTGI (converted)
[10] = Antitumor activity against ovarian tumor cells; assay type: functional; conditions: Homo sapiens; for TGI: read-out: pTGI (converted)
[11] = Antitumor activity against breast tumor cells; assay type: functional; conditions: Homo sapiens; for TGI: read-out: pTGI (converted)

SMILES: COc1cc2c(/C=C3/C(=O)Nc4ccc(F)cc43)c(Cl)[nH]c2cc1C
Activity [1]: Active
Activity [2]: Active

SMILES: COc1cc2c(/C=C3/C(=O)Nc4ccc(F)cc43)c(Cl)n(Cc3ccccc3)c2cc1C
Activity [1]: Active
Activity [2]: Active

SMILES: COc1cc2c(/C=C3/C(=O)Nc4ccc(O)cc43)c(Cl)n(Cc3ccc(Cl)cc3)c2cc1C
Activity [1]: Active
Activity [2]: Active

SMILES: COc1cc2c(/C=C3/C(=O)Nc4c3ccc3ccccc43)c(Cl)n(C)c2cc1C
GI50 [3]: 17.4 nM
TGI [3]: 501 nM
GI50 [4]: 30.9 nM
LC50 [4]: 50.1 µM
TGI [4]: 4.79 µM
GI50 [5]: 77.6 nM
LC50 [5]: 5.13 µM
TGI [5]: 0.129 µM
GI50 [6]: 115 nM
LC50 [6]: 30.9 µM
TGI [6]: 1620 nM
GI50 [7]: 53.7 nM
CC50 [7]: 36.3 µM
TGI [7]: 6.61 µM
GI50 [8]: 72.4 nM
LC50 [8]: 22.4 µM
TGI [8]: 2.63 µM
GI50 [9]: 562 nM
CC50 [9]: 25.7 µM
TGI [9]: 2.45 µM
GI50 [10]: 35.5 nM
LC50 [10]: 22.9 µM
TGI [10]: 562 nM
GI50 [11]: 46.8 nM
LC50 [11]: 13.8 µM
TGI [11]: 3.02 µM
Activity [1]: Active
Activity [2]: Active

SMILES: COc1cc2c(/C=C3/C(=O)Nc4ccc(F)cc43)c(Cl)n(C)c2cc1C
Activity [1]: Active
Activity [2]: Active

SMILES: COc1cc2c(/C=C3/C(=O)Nc4c3ccc3ccccc43)c(Cl)[nH]c2cc1C
GI50 [3]: 10.2 nM
TGI [3]: 537 nM
GI50 [4]: 102 nM
LC50 [4]: 49 µM
TGI [4]: 4.27 µM
GI50 [5]: 17 nM
LC50 [5]: 50.1 µM
TGI [5]: 3.72 µM
GI50 [6]: 13.5 nM
LC50 [6]: 50.1 µM
TGI [6]: 794 nM
GI50 [7]: 10 nM
CC50 [7]: 40.7 µM
TGI [7]: 3.55 µM
GI50 [8]: 89.1 nM
LC50 [8]: 50.1 µM
TGI [8]: 30.9 µM
GI50 [9]: 17 nM
CC50 [9]: 50.1 µM
TGI [9]: 50.1 µM
GI50 [10]: 12 nM
LC50 [10]: 47.9 µM
TGI [10]: 708 nM
GI50 [11]: 39.8 nM
LC50 [11]: 50.1 µM
TGI [11]: 2.04 µM
Activity [1]: Active
Activity [2]: Active

SMILES: CC[C@]1(O)C[C@H]2CN(CCc3c([nH]c4ccccc34)[C@@](C(=O)OC)(c3cc4c(cc3OC)N(C=O)[C@H]3[C@@](O)(C(=O)OC)[C@H](OC(C)=O)[C@]5(CC)C=CCN6CC[C@]43[C@@H]65)C2)C1 [VINCRISTINE SULFATE]
GI50 [3]: 100 nM
TGI [3]: 15800 nM
GI50 [4]: 251 nM
TGI [4]: 15.8 µM
GI50 [5]: 100 nM
TGI [5]: 3.98 µM
GI50 [6]: 126 nM
TGI [6]: 6310 nM
GI50 [7]: 158 nM
CC50 [7]: 251 µM
TGI [7]: 7.94 µM
GI50 [8]: 316 nM
TGI [8]: 20 µM
GI50 [9]: 126 nM
CC50 [9]: 316 µM
TGI [9]: 6.31 µM
GI50 [10]: 316 nM
TGI [10]: 20000 nM
GI50 [11]: 316 nM
TGI [11]: 7.94 µM

Other lines, results leading:

Activity [1]: Active
Activity [2]: Active
SMILES: COc1cc2c(/C=C3/C(=O)Nc4ccc(Cl)cc43)c(Cl)n(Cc3ccc(Cl)cc3)c2cc1C

Activity [1]: Active
Activity [2]: Active
SMILES: COc1cc2c(/C=C3/C(=O)Nc4cc(C)c(O)cc43)c(Cl)n(C)c2cc1C

Activity [1]: Active
Activity [2]: Active
SMILES: COc1cc2c(/C=C3/C(=O)Nc4cccc(Cl)c43)c(Cl)n(C)c2cc1C

Activity [1]: Active
Activity [2]: Active
SMILES: COc1cc2c(/C=C3/C(=O)Nc4ccccc43)c(Cl)n(C)c2cc1C

Activity [1]: Active
Activity [2]: Active
SMILES: COc1cc2c(/C=C3/C(=O)Nc4cccc(Cl)c43)c(Cl)n(Cc3ccc(Cl)cc3)c2cc1C

Activity [1]: Active
Activity [2]: Active
SMILES: COc1cc2c(/C=C3/C(=O)Nc4ccc(Cl)cc43)c(Cl)n(C)c2cc1C

Activity [1]: Active
Activity [2]: Active
SMILES: COc1cc2c(/C=C3/C(=O)Nc4ccc(O)cc43)c(Cl)n(C)c2cc1C

Activity [1]: Active
Activity [2]: Active
SMILES: COc1cc2c(/C=C3/C(=O)Nc4cc(C)c(O)cc43)c(Cl)n(Cc3ccc(Cl)cc3)c2cc1C
